pKi: −log10 of the molar value. In brackets after ≈: the same amount, converted by molar mass.

Here are results for 12 molecules from ChEMBL document CHEMBL1131207, “Discovery and evaluation of a series of 3-acylindole imidazopyridine platelet-activating factor antagonists” (J Med Chem, 1998).

Series [1] is described as follows: The compound was evaluated for its solubility in lactate buffer at pH 3. Type of series: ADME.
The subject of series [2] is Rattus norvegicus. The series is described as follows: The compound was evaluated for its PAF-induced vascular permeability in rat when dosed orally. Type of series: functional. The following applies: po.
The target in series [3] is Platelet-activating factor receptor (Rattus norvegicus) (UniProt P46002). The series is described as follows: Ability to block the effect of exogenously administered PAF upon intravenous administration in PAF-induced rat skin permeability assay. It is filed as functional, organism-based.
Sequence of Platelet-activating factor receptor (Rattus norvegicus) (P46002 whole entry): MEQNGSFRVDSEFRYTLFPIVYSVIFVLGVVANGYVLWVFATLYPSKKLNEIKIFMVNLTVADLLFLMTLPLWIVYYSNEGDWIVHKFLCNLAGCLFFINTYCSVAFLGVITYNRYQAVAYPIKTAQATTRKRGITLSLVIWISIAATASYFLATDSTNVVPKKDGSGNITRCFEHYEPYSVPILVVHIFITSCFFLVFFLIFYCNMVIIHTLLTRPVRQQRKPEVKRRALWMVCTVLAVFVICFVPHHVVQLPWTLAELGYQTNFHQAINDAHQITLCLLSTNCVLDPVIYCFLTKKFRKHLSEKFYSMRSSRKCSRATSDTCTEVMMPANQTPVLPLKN
The test system of series [4] is Cavia porcellus. The experiment in a line: The compound was evaluated for its PAF-induced vascular permeability in guinea pig when dosed intravenously. It is filed as functional. The note with it: iv.
Series [5] has as its system Cavia porcellus. The series is described as follows: The compound was evaluated for its PAF-induced vascular permeability in guinea pig when dosed orally. The following applies: po. Type of series: functional.
The target of series [6] is Platelet-activating factor receptor (Homo sapiens, UniProt P25105). The experiment in a line: The compound was evaluated for its binding affinity against PAF receptor in human platelet.
Sequence of Platelet-activating factor receptor (P25105 whole entry): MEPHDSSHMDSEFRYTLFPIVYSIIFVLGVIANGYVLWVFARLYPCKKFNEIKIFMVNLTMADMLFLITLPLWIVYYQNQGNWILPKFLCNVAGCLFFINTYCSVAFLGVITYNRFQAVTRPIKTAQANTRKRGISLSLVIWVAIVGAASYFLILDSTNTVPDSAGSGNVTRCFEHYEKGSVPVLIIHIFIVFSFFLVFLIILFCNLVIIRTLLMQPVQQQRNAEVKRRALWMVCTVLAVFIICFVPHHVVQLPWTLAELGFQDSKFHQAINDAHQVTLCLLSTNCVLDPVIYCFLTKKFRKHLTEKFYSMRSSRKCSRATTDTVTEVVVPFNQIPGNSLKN
Series [7] has as its system Rattus norvegicus. The experiment in a line: The compound was evaluated for its PAF-induced vascular permeability in rat when dosed intravenously. The note with it: iv. It is filed as functional.
A short description of series [8]: The bioavailability in monkey was evaluated. It is filed as ADME, organism-based. The note with it: primates, in vivo.
Series [9] can be described thus: The bioavailability in rat was evaluated. Type of series: ADME, organism-based. The note with it: in vivo.
Series [10] is described as follows: The solubility in lactate buffer at pH 3 was evaluated. Type of series: ADME.
Series [11] deals with Cavia porcellus. The experiment in a line: The compound was evaluated for PAF-induced vascular permeability in guinea pig when dosed intravenously. The note with it: iv. It is filed as functional.
The subject of series [12] is Cavia porcellus. The experiment in a line: The compound was evaluated for PAF-induced vascular permeability in guinea pig when dosed orally. It is filed as functional. The following applies: po.
Series [13] concerns the target Platelet-activating factor receptor (Rattus norvegicus) (UniProt P46002). The experiment in a line: Tested in vivo for to block the effect of exogenously administered PAF upon oral administration in PAF-induced rat skin permeability assay. It is filed as functional, organism-based.
Series [14] can be described thus: The compound was evaluated for its bioavailability in monkey. It is filed as ADME, organism-based. The following applies: primates, in vivo.
Series [15] is described as follows: The compound was evaluated for its bioavailability in rat. Type of series: ADME, organism-based. The following applies: in vivo.

The solubility is the concentration that dissolves in the medium under given conditions. Usually ED50 stands for the dose that gives a 50% effect, or the effect in half of the subjects. For `Cc1nc2cnccc2n1Cc1ccc(C(=O)c2cn(C(=O)N(C)C)c3cc(-c4ccc(F)cc4)ccc23)cc1`, in series [1], the solubility was found to be 120 µg/mL (≈ 0.226 mM). Moreover, the values for the ED50 in series [2] and in series [3] were 0.5 mg/kg and 68 µg/kg, respectively.

What is called pKi is the negative decadic logarithm of the Ki, by convention in mol/L. The molecule `CCOC(=O)[C@H](CC(C)C)N(C)S(=O)(=O)c1ccc(Cn2c(C)nc3cnccc32)cc1` [LEXIPAFANT] returned a solubility in [1] above 20000 µg/mL. Besides, the ED50 in series [4] was 0.027 mg/kg; in series [5] it was 10.3 mg/kg; in series [7] it was 0.02 mg/kg; in series [2], 0.8 mg/kg. The same molecule gave a pKi in [6] of 9.42.

One may read the bioavailability as dose-corrected exposure relative to a reference, in per cent. For `C#Cc1cccc2c1c(C(=O)c1ccc(Cn3c(C)nc4cnccc43)c(F)c1)cn2C(=O)N(C)C`, the bioavailability in series [8] was 56%; in series [9], 49%. The same molecule had a solubility in series [10] above 20 mg/mL. Also, the ED50 in [11] worked out at 0.016 mg/kg; in series [12] it was 0.29 mg/kg; in series [3], 3 µg/kg; in series [13], 0.094 mg/kg. Further, in series [6], the pKi was 9.24.

In the case of `CC(=O)OC[n+]1cccc([C@H]2SCc3c(C(=O)c4cn(C(=O)N(C)C)c5cc(-c6ccc(F)cc6)ccc45)ccn32)c1.[Cl-]`, the bioavailability in series [14] was 36%; in series [15], 46%. In addition, the ED50 in [4] amounted to 0.09 mg/kg; in [5], 0.08 mg/kg; in series [7] it was 0.006 mg/kg; in series [2], 0.08 mg/kg. Further, the pKi in series [6] is 9.01.

In the case of `Cc1nc2cnccc2n1Cc1ccc(C(=O)c2cn(C(=O)N(C)C)c3cccc(-c4ccc(F)cc4)c23)cc1`, the ED50 in series [3] amounted to 4 µg/kg; in series [13] it was 0.45 mg/kg.

Consider `Cc1cccc2c1c(C(=O)c1ccc(Cn3c(C)nc4cnccc43)cc1)cn2C(=O)N(C)C`, for which the ED50 in series [3] was determined as 4 µg/kg; in series [13], 0.2 mg/kg.

For the molecule `COC(=O)c1cccc2c1c(C(=O)CCCCCn1c(C)nc3cnccc31)cn2C(=O)N(C)C`, the 50% effective dose (ED50) in series [3] amounted to 13 µg/kg; in series [13], 1.1 mg/kg.

Regarding `CCOC(=O)c1cccc2c1c(C(=O)c1ccc(Cn3c(C)nc4cnccc43)cc1)cn2C(=O)N(C)C`, the median effective dose (ED50) in series [3] is 6 µg/kg; in [13], above 1 mg/kg.

`Cc1nc2cnccc2n1Cc1ccc(C(=O)c2cn(C(=O)N(C)C)c3cccc(OC(=O)N(C)C)c23)cc1`: the ED50 came to 5 µg/kg in [3] and 0.34 mg/kg in series [13].

For the molecule `COC(=O)c1cccc2c1c(C(=O)Cc1ccc(-n3c(C)nc4cnccc43)cc1)cn2C(=O)N(C)C`, the ED50 was found to be 5 µg/kg in series [3] and 0.17 mg/kg in series [13].

In the case of `Cc1nc2cnccc2n1Cc1ccc(C(=O)c2cn(C(=O)N(C)C)c3cccc(OC(=O)N(C)C)c23)cc1F`, the results for the ED50 in [3] and in series [13] were 5 µg/kg and 2.7 mg/kg, respectively.

For `Cc1cccc2c1c(C(=O)CN1CCC(n3c(C)nc4cnccc43)CC1)cn2C(=O)N(C)C`, the ED50 in series [3] is 5 µg/kg; in series [13], 0.14 mg/kg.
